Results reported in the supplement of paper PMC11061612.

What was measured:
Test in all cases: combination Emax (second highest fraction inhibited in the dose matrix, 72 h); higher = more inhibition; extreme values may be limits of the assay
[1] = tested on: A549 (Lung Adenocarcinoma)
Summary of the method: (§1)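 Bliss excess equals the observed combination effect minus the expected value EA + EB − EA·EB, where EA and EB are the effects of each agent alone. Combination Emax is the second-highest inhibition within the matrix. Inhibition was scaled from CellTiter-Glo 2.0 luminescence, with 0 set by vehicle wells and 1 by blank wells, after 72 hours of two-drug dosing of cells plated in 1536-well plates.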

[2] = tested on: BICR22 (Oral Cavity Carcinoma)
Summary of the method: as §1

[3] = tested on: CAPAN-2 (Pancreatic Carcinoma)
Summary of the method: as §1

CAS-1 (Glioblastoma) = tested on: CAS-1 (Glioblastoma)
Summary of the method: as §1

[4] = tested on: COLO-320-HSR (Colorectal Carcinoma)
Summary of the method: as §1

[5] = tested on: COR-L311 (Small Cell Lung Carcinoma)
Summary of the method: as §1

[6] = tested on: ECC10 (Gastric Carcinoma)
Summary of the method: as §1

FU97 (Gastric Carcinoma) = tested on: FU97 (Gastric Carcinoma)
Summary of the method: as §1

[7] = tested on: HCC1954 (Breast Carcinoma)
Summary of the method: as §1

[8] = tested on: KARPAS-422 (B-Cell Non-Hodgkin's Lymphoma)
Summary of the method: as §1

LN-405 (Glioblastoma) = tested on: LN-405 (Glioblastoma)
Summary of the method: as §1

[9] = tested on: NCI-H1650 (Lung Adenocarcinoma)
Summary of the method: as §1

[10] = tested on: NCI-H2066 (Squamous Cell Lung Carcinoma)
Summary of the method: as §1

[11] = tested on: NCI-H64 (Small Cell Lung Carcinoma)
Summary of the method: as §1

[12] = tested on: ONS-76 (Other Solid Carcinomas)
Summary of the method: as §1

[13] = tested on: OS-RC-2 (Kidney Carcinoma)
Summary of the method: as §1

PA-1 (Ovarian Carcinoma) = tested on: PA-1 (Ovarian Carcinoma)
Summary of the method: as §1

[14] = tested on: SK-MES-1 (Squamous Cell Lung Carcinoma)
Summary of the method: as §1

[15] = tested on: TT2609-C02 (Thyroid Gland Carcinoma)
Summary of the method: as §1

U-2-OS (Osteosarcoma) = tested on: U-2-OS (Osteosarcoma)
Summary of the method: as §1

| SMILES | combination Emax [1] | combination Emax [2] | combination Emax [3] | combination Emax (CAS-1 (Glioblastoma)) | combination Emax [4] | combination Emax [5] | combination Emax [6] | combination Emax (FU97 (Gastric Carcinoma)) | combination Emax [7] | combination Emax [8] | combination Emax (LN-405 (Glioblastoma)) | combination Emax [9] | combination Emax [10] | combination Emax [11] | combination Emax [12] | combination Emax [13] | combination Emax (PA-1 (Ovarian Carcinoma)) | combination Emax [14] | combination Emax [15] | combination Emax (U-2-OS (Osteosarcoma)) |
| --- | --- | --- | --- | --- | --- | --- | --- | --- | --- | --- | --- | --- | --- | --- | --- | --- | --- | --- | --- | --- |
| Cc1c2c(nn1C)CSCc1cc(n(C)n1)CSc1cc(c3ccccc3c1)OCCCc1c(C(=O)O)n(C)c3c-2c(Cl)ccc13 [AZD5991] + Cc1cc2ncnn2cc1Nc1ncc2c(n1)n(C1CCOCC1)c(=O)n2C [AZD7648] (first compound max 1 µM, 7x7, partner max 10 µM) | 0.461 | 0.499 | 0.291 | 0.401 | 0.808 | 0.343 | 0.669 | 0.293 | 0.992 | 1 | 0.37 | 0.168 | 0.299 | 0.341 | 0.315 | 0.286 | 0.906 | 0.223 | 0.205 | 0.261 |
| Cc1c2c(nn1C)CSCc1cc(n(C)n1)CSc1cc(c3ccccc3c1)OCCCc1c(C(=O)O)n(C)c3c-2c(Cl)ccc13 [AZD5991] + Cn1cnc2c(F)c(Nc3ccc(Br)cc3Cl)c(C(=O)NOCCO)cc21 [Selumetinib] (first compound max 1 µM, 7x7, partner max 3 µM) | 0.64 | 0.959 | 0.482 | 0.286 | 0.801 | 0.247 | 0.669 | 0.411 | 0.982 | 0.998 | 0.383 | 0.16 | 0.258 | 0.295 | 0.631 | 0.238 | 0.865 | 0.435 | 0.569 | 0.331 |
| C[C@@H]1COCCN1c1cc(C2([S@](C)(=N)=O)CC2)nc(-c2ccnc3[nH]ccc23)n1 [AZD6738] + O=C(c1cc(Cc2n[nH]c(=O)c3ccccc23)ccc1F)N1CCN(C(=O)C2CC2)CC1 [Olaparib] (first compound max 10 µM, 7x7, partner max 10 µM) | 0.809 | 0.711 | 0.309 | 0.48 | 0.475 | 0.509 | 0.54 | 0.332 | 0.353 | 0.556 | 0.391 | 0.349 | 0.388 | 0.692 | 0.894 | 0.435 | 0.768 | 0.696 | 0.316 | 0.723 |
| Cc1cc2ncnn2cc1Nc1ncc2c(n1)n(C1CCOCC1)c(=O)n2C [AZD7648] + C=CCn1c(=O)c2cnc(Nc3ccc(N4CCN(C)CC4)cc3)nc2n1-c1cccc(C(C)(C)O)n1 [AZD1775] (first compound max 10 µM, partner max 1 µM) | 0.578 | 0.643 | 0.485 | 0.566 | 0.744 | 0.571 | 0.797 | 0.397 | 0.483 | 0.784 | 0.281 | 0.417 | 0.339 | 0.89 | 0.589 | 0.419 | 0.706 | 0.711 | 0.304 | 0.614 |
| Cc1cc2ncnn2cc1Nc1ncc2c(n1)n(C1CCOCC1)c(=O)n2C [AZD7648] + CCN(CCO)CCCOc1ccc2c(Nc3cc(CC(=O)Nc4cccc(F)c4)[nH]n3)ncnc2c1 [AZD2811] (first compound max 10 µM, 7x7, partner max 1 µM) | 0.718 | 0.605 | 0.239 | 0.427 | 0.209 | 0.829 | 0.908 | 0.337 | 0.342 | 0.556 | 0.186 | 0.287 | 0.356 | 0.596 | 0.398 | 0.287 | 0.315 | 0.373 | 0.244 | 0.229 |
| Cc1cc2ncnn2cc1Nc1ncc2c(n1)n(C1CCOCC1)c(=O)n2C [AZD7648] + CN(C)CCCOc1ccc(-c2ccc3ncc4c(c3c2)n(C2CCOCC2)c(=O)n4C)cn1 [AZD0156] (first compound max 10 µM, 7x7, partner max 1 µM) | 0.468 | 0.384 | 0.253 | 0.314 | 0.27 | 0.256 | 0.323 | 0.382 | 0.307 | 0.479 | 0.164 | 0.25 | 0.321 | 0.279 | 0.26 | 0.261 | 0.239 | 0.28 | 0.0937 | 0.176 |
| Cc1cc2ncnn2cc1Nc1ncc2c(n1)n(C1CCOCC1)c(=O)n2C [AZD7648] + C[C@@H]1COCCN1C2=NC(=NC(=C2)C3(CC3)[S@](=N)(=O)C)C4=C5C=CNC5=NC=C4 [AZD6738] (first compound max 10 µM, 7x7, partner max 10 µM) | 0.786 | 0.761 | 0.346 | 0.609 | 0.616 | 0.214 | 0.421 | 0.42 | 0.568 | 0.639 | 0.43 | 0.324 | 0.379 | 0.811 | 0.825 | 0.419 | 0.75 | 0.72 | 0.191 | 0.675 |
| Cc1cc2ncnn2cc1Nc1ncc2c(n1)n(C1CCOCC1)c(=O)n2C [AZD7648] + O=C(c1cc(Cc2n[nH]c(=O)c3ccccc23)ccc1F)N1CCN(C(=O)C2CC2)CC1 [Olaparib] (first compound max 10 µM, 7x7, partner max 10 µM) | 0.59 | 0.141 | 0.0547 | 0.271 | 0.073 | 0.456 | 0.158 | 0.291 | 0.161 | 0.55 | 0.183 | 0.0772 | 0.295 | 0.134 | 0.246 | 0.224 | 0.374 | 0.177 | 0.156 | 0.118 |
| NC1(C(=O)N[C@@H](CCO)c2ccc(Cl)cc2)CCN(c2ncnc3[nH]ccc23)CC1 [Capivasertib] + CC(=O)c1c(C)c2cnc(Nc3ccc(N4CCNCC4)cn3)nc2n(C2CCCC2)c1=O [Palbociclib] (first compound max 10 µM, 7x7, partner max 10 µM) | 0.764 | 0.329 | 0.242 | 0.635 | 0.263 | 0.68 | 0.506 | 0.358 | 0.74 | 0.771 | 0.577 | 0.351 | 0.507 | 0.332 | 0.557 | 0.454 | 0.909 | 0.5 | 0.376 | 0.408 |
| NC1(C(=O)N[C@@H](CCO)c2ccc(Cl)cc2)CCN(c2ncnc3[nH]ccc23)CC1 [Capivasertib] + CC(C)n1c(=O)n(C)c2cnc3cc(F)c(-c4ccc(OCCCN5CCCCC5)nc4)cc3c21 [AZD1390] (first compound max 10 µM, 7x7, partner max 0.3 µM) | 0.59 | 0.312 | 0.222 | 0.543 | 0.172 | 0.685 | 0.274 | 0.361 | 0.752 | 0.507 | 0.489 | 0.317 | 0.553 | 0.251 | 0.386 | 0.401 | 0.753 | 0.237 | 0.167 | 0.288 |
| NC1(C(=O)N[C@@H](CCO)c2ccc(Cl)cc2)CCN(c2ncnc3[nH]ccc23)CC1 [Capivasertib] + CCN(CCO)CCCOc1ccc2c(Nc3cc(CC(=O)Nc4cccc(F)c4)[nH]n3)ncnc2c1 [AZD2811] (first compound max 10 µM, 7x7, partner max 1 µM) | 0.698 | 0.562 | 0.219 | 0.635 | 0.174 | 0.915 | 0.86 | 0.369 | 0.87 | 0.531 | 0.497 | 0.351 | 0.534 | 0.668 | 0.589 | 0.445 | 0.918 | 0.36 | 0.542 | 0.383 |
| NC1(C(=O)N[C@@H](CCO)c2ccc(Cl)cc2)CCN(c2ncnc3[nH]ccc23)CC1 [Capivasertib] + COc1nnc2ccc(N3CCC(c4ccc(OCCN5CCN(C)C(=O)[C@H]5C)cc4)CC3)nn12 [AZD5153] (first compound max 10 µM, 7x7, partner max 1 µM) | 0.823 | 0.631 | 0.33 | 0.735 | 0.242 | 1 | 0.981 | 0.821 | 0.922 | 0.68 | 0.623 | 0.442 | 0.77 | 0.548 | 0.627 | 0.433 | 0.998 | 0.583 | 0.461 | 0.354 |
| NC1(C(=O)N[C@@H](CCO)c2ccc(Cl)cc2)CCN(c2ncnc3[nH]ccc23)CC1 [Capivasertib] + C[C@@H]1COCCN1C2=NC(=NC(=C2)C3(CC3)[S@](=N)(=O)C)C4=C5C=CNC5=NC=C4 [AZD6738] (first compound max 10 µM, 7x7, partner max 10 µM) | 0.848 | 0.812 | 0.219 | 0.735 | 0.507 | 0.787 | 0.498 | 0.482 | 0.859 | 0.566 | 0.615 | 0.541 | 0.626 | 0.861 | 0.852 | 0.481 | 0.964 | 0.855 | 0.364 | 0.535 |
